Laboratory results taken from patent US8212007B2, “Expression and purification of HIP/PAP and uses therefor” (priority 2007, dated 2012).

Tests used:
[1] = system: intestinal bacteria recovered from conventional mouse small intestine; assay: Flow cytometry binding to intestinal bacteria; conditions: 30 μM conjugate, 40 minutes on ice, formaldehyde-fixed bacteria
[2] = system: Listeria monocytogenes; assay: Bactericidal activity after N-terminal cleavage with trypsin; assay type: cell-based; conditions: 5 μM protein, 2 hours at 37° C., L. monocytogenes
Experimental: Eleven amino acids were truncated from the N-terminus HIP/PAP resulting in increase bactericidal activity.
Purified recombinant HIP/PAP was cleaved by the addition of bovine trypsin (Sigma) in a 1:200 molar ratio (trypsin:HIP/PAP). After 2 hours incubation at 37° C., 5 μM trypsin-treated HIP/PAP or uncleaved recombinant HIP/PAP was added to Listeria monocytogenes that had been grown to mid-log phase in brain-heart infusion (BHI) broth and resuspended in 25 mM MES pH 6, 25 mM NaCl. Initial bacterial concentrations ranged from 10^5 to 10^6 CFU/ml. After incubation for 2 hours at 37° C., viable bacteria were quantitated by dilution plating on BHI agar plates.

Row | Substance | binding of AlexaFluor555 conjugate to intestinal bacteria (flow cytometry) [1] | bactericidal activity with or without N-terminal truncation (11 amino acids) [2]
1 | BSA-AlexaFluor555: AlexaFluor555-labeled BSA, control for flow cytometry binding to intestinal bacteria | no binding | 
2 | trypsin-treated HIP/PAP: recombinant HIP/PAP cleaved with bovine trypsin, 11 amino acids removed from the N-terminus |  | increased bactericidal activity
